# Measured values taken from PMC8231342, “Potency of bisresorcinol from Heliciopsis terminalis on skin aging: in vitro bioactivities and molecular interactions” (PeerJ, 2021).
# “And” between values parts separate entries of the source, which are not always exact repeats. Equal values may be shown once. Read-outs that look alike come from different tables or passages of the source.
# Tests used:
# Format in all cases: biochemical
# [1] = target: Mushroom tyrosinase (EC.1.14.18.1) (Agaricus bisporus, UniProt C7FF04); assay: Tyrosinase inhibition assay (L-tyrosine substrate); details: for inhibition at 10 µg/mL: conc 10 ug/ml
# Sequence of Mushroom tyrosinase (EC.1.14.18.1) (C7FF04 2-392): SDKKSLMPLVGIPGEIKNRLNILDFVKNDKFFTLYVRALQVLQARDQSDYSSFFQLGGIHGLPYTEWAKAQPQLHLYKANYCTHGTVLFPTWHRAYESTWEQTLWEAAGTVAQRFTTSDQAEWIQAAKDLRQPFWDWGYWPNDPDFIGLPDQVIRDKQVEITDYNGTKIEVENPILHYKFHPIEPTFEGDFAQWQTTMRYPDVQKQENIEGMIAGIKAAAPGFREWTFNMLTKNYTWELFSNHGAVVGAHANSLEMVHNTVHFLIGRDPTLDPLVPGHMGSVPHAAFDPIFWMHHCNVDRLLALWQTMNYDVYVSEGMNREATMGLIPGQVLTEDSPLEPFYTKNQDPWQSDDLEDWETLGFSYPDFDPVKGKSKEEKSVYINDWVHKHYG
# Method: In brief, the assay was carried out in 0.05 mol L^−1 phosphate buffer pH 6.8. Mushroom tyrosinase (EC.1.14.18.1) was dissolved in the buffer to a concentration of 100 units mL^−1. L-tyrosine, an enzyme substrate, was prepared to a concentration of 0.25 mg mL^−1 in the buffer. […] Into a well of 96-well plates, 10 µl sample and 40 µl L-tyrosine solution were mixed and incubated for 10 min at room temperature. After that 50 µl enzyme solution was inoculated and mixed thoroughly. The reaction was stopped afterward by incubation on ice for 1 min. […] The percentage inhibition (%) was calculated by the equation as follows:
# %Inhibition={1–(Asam,10–Asam,0)÷(Acont,10–Acont,0)}×100.
# [2] = system: Collagenase from Clostridium histolyticum (EC.3.4.24.3); assay: Collagenase inhibition assay (fluorogenic peptide substrate)
# Method: The recent anti-collagenase assay was modified from that previously described by [Widyowati et al. (2016)]. In brief, 50 mmol L^−1 tricine buffer pH 7.5 supplemented with 400 mmol L^−1 NaCl and 10 mmol L^−1 CaCl2 was used as the buffering diluent. Collagenase from Clostridium histolyticum (EC.3.4.24.3) was dissolved in the buffer to a concentration of 1 mg L^−1. The enzyme substrate, MOCAc-PRO-Leu-Gly-Leu-A2pr (Dnp)-Ala-Arg-NH2, was prior dissolved in DMSO and subsequently diluted in the buffer to a concentration of 1 mmol L^−1. A sample dissolved in DMSO was diluted to different concentrations by using the buffer. A 2-µl sample solution was incubated with 100 µl enzyme solution at 37 °C for 10 min. Then, a 50-µl substrate was added and thoroughly mixed. Fluorescence emission (F) at 405 nm was immediately recorded and continually monitored for 30 min using a wavelength of 320 nm for excitation. Caffeic acid was used as a position control (Fig. 1). Negative control was performed with water. The percent inhibition (%) was calculated from the equation below:
# %Inhibition={1–(Fsam,30–Fsam,0)÷(Fcont,30–Fcont,0)}×100.
# [3] = target: porcine pancreatic elastase (EC.3.4.21.36) (Sus scrofa, UniProt P00772); assay: Elastase inhibition assay (SANA substrate)
# Sequence of porcine pancreatic elastase (EC.3.4.21.36) (P00772 27-266): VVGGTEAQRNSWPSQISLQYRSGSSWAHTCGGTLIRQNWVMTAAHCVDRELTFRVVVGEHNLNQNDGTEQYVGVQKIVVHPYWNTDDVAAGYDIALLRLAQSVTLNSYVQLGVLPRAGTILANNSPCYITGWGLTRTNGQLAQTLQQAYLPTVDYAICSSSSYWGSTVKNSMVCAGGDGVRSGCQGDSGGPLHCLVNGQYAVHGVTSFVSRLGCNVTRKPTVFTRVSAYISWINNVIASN
# Method: The assay according to [Abhijit & Manjushree (2010)] was applied with some modifications. Briefly, the buffer system was 0.2 mM Tris-HCl buffer (pH 8.0). A solution of 1 µg mL^−1 porcine pancreatic elastase (EC.3.4.21.36) was prepared in sterile water. The enzyme substrate, N-Succinyl-Ala-Ala-Ala-p-nitroanilide (SANA), was dissolved in the buffer to a concentration of 80 mmol L^−1. A sample dissolved in DMSO was diluted to various concentrations by using the buffer. A 100-µl sample solution was mixed with 50 µl enzyme solution and incubated for 15 min. After that 50 µl of the enzyme substrate solution was added and thoroughly mixed. The OD410 was measured immediately (0 min) and after incubation overnight (o/n) at 37 °C by using a microplate reader. Ursolic acid was used as a positive control (Fig. 1), and water was used as a negative control. The percentage inhibition (%) was calculated by the following equation:
# %Inhibition={1–[(Asam,o/n–Asam,0)÷(Acont,o/n–Acont,0)]}×100.
# [4] = individual replicates, read-out: % inhibition tyrosinase, replicates 1-3
# [5] = read-out: % inhibition tyrosinase, ave
# [6] = individual replicates, read-out: ic50 collagenase, N1-N3
# [7] = mean ± SEM, triplicate, read-out: IC50 collagenase inhibition
# [8] = individual replicates, read-out: % inhibition elastase, replicates 1-3
# [9] = read-out: % inhibition elastase, ave
# [10] = individual replicates, read-out: ic50 elastase, N1-N3 (converted)
# [11] = mean ± SEM, triplicate, read-out: IC50 elastase inhibition
smiles,measurement,setting,value
"Oc1cc(O)cc(CCCCCCCC=CCCCCCCCc2cc(O)cc(O)c2)c1 [Bisresorcinol, (8′Z)-3,5-dihydroxy-1-[16′-(3″,5″-dihydroxyphenyl)-8′-hexadecen-1′-yl]benzene]",inhibition at 10 µM,[1]; [4],52.4%
same,inhibition at 10 µM,[1]; [5],44.4%
same,inhibition at 28 µM,[1]; [4],81.8%
same,inhibition at 28 µM,[1]; [5],78.5%
same,inhibition at 30 µM,"[1]; 30 uM, individual replicates, read-out: % inhibition tyrosinase, replicates 1-3",81.8%
same,inhibition at 30 µM,"[1]; 30 uM, read-out: % inhibition tyrosinase, ave",78.5%
same,inhibition at 34 µM,[1]; [4],86.3%
same,inhibition at 34 µM,[1]; [5],84.3%
same,inhibition at 40 µM,"[1]; 40 uM, individual replicates, read-out: % inhibition tyrosinase, replicates 1-3",119%
same,inhibition at 40 µM,"[1]; 40 uM, read-out: % inhibition tyrosinase, ave",100%
same,inhibition at 50 µM,"[1]; 50 uM, individual replicates, read-out: % inhibition tyrosinase, replicates 1-3",138%
same,inhibition at 50 µM,"[1]; 50 uM, read-out: % inhibition tyrosinase, ave",100%
same,inhibition at 50 µM,"[1]; at 50 µmol L^−1, read-out: tyrosinase inhibition",100%
same,inhibition at 10 µg/mL,"[1]; individual replicates, read-out: % inhibition tyrosinase, N1-N3",52.4%
same,inhibition at 10 µg/mL,[1]; [5],44.4%
same,inhibition at 12.5 µg/mL,"[1]; conc 12.5 ug/ml, individual replicates, read-out: % inhibition tyrosinase, N1-N3",81.8%
same,inhibition at 12.5 µg/mL,"[1]; conc 12.5 ug/ml, read-out: % inhibition tyrosinase, ave",78.5%
same,inhibition at 15 µg/mL,"[1]; conc 15 ug/ml, individual replicates, read-out: % inhibition tyrosinase, N1-N3",86.3%
same,inhibition at 15 µg/mL,"[1]; conc 15 ug/ml, read-out: % inhibition tyrosinase, ave",84.2%
same,"% inhibition collagenase, ave",[2]; 56 uM,0.0%
same,"% inhibition collagenase, ave",[2]; 113 uM,33.0%
same,"% inhibition collagenase, ave",[2]; 226 uM,81.31% and 81.3%
same,"ic50 collagenase, ave",[2]; average of N1-N3,69.5 µg/mL
same,"% inhibition collagenase, ave",[2]; conc 25 ug/ml,0.00%
same,"% inhibition collagenase, N1-N3","[2]; conc 25 ug/ml, individual replicates",0.00% and 0% (2×)
same,"% inhibition collagenase, ave",[2]; conc 50 ug/ml,32.97%
same,"% inhibition collagenase, N1-N3","[2]; conc 50 ug/ml, individual replicates",38.51% and 27.91% and 32.48%
same,"% inhibition collagenase, ave",[2]; conc 100 ug/ml,81.31%
same,"% inhibition collagenase, N1-N3","[2]; conc 100 ug/ml, individual replicates",82.28% and 81.54% and 80.12%
same,"ic50 collagenase, N1-N3",[2]; individual replicates,70.18 µg/mL and 67.47 µg/mL and 70.79 µg/mL
same,IC50,[2]; [6],158 µM and 152 µM and 160 µM
same,IC50,[2]; [7],157 ± 2.3 µM
same,inhibition at 23 µM,"[3]; 23 uM, read-out: % inhibition elastase, ave",20.8%
same,inhibition at 34 µM,[3]; [8],46.5%
same,inhibition at 34 µM,[3]; [9],34.7%
same,inhibition at 45 µM,[3]; [8],99.6%
same,inhibition at 45 µM,[3]; [9],99.7%
same,inhibition at 50 µM,"[3]; at 50 µmol L^−1, read-out: maximum inhibition of elastase",100%
same,IC50,"[3]; average of N1-N3, read-out: ic50 elastase, ave (converted)",33.4 µM
same,"% inhibition elastase, N1-N3","[3]; conc 10 ug/ml, individual replicates",30.14% and 20.28% and 11.87%
same,inhibition at 10 µg/mL,"[3]; conc 10 ug/ml, read-out: % inhibition elastase, ave",20.8%
same,"% inhibition elastase, N1-N3","[3]; conc 15 ug/ml, individual replicates",30.89% and 26.77%
same,inhibition at 15 µg/mL,"[3]; conc 15 ug/ml, individual replicates, read-out: % inhibition elastase, N1-N3",46.5%
same,inhibition at 15 µg/mL,"[3]; conc 15 ug/ml, read-out: % inhibition elastase, ave",34.7%
same,"% inhibition elastase, N1-N3","[3]; conc 20 ug/ml, individual replicates",99.58% and 99.76%
same,inhibition at 20 µg/mL,"[3]; conc 20 ug/ml, individual replicates, read-out: % inhibition elastase, N1-N3",99.6%
same,inhibition at 20 µg/mL,"[3]; conc 20 ug/ml, read-out: % inhibition elastase, ave",99.7%
same,IC50,[3]; [10],35 µM and 31.2 µM and 34 µM and 34.8 µM and 31 µM and 33.8 µM
same,IC50,[3]; [11],33.2 ± 1.1 µM
"O=C(O)/C=C/c1ccc(O)c(O)c1 [Caffeic acid, caffeic acid, reference compound]","% inhibition collagenase, ave",[2]; 140 uM,30.4%
same,"% inhibition collagenase, ave",[2]; 280 uM,51.1%
same,"% inhibition collagenase, ave",[2]; 560 uM,72.8%
same,"% inhibition collagenase, ave",[2]; conc 280 uM (14 mM is the stock sample solution),30.37%
same,"% inhibition collagenase, N1-N3","[2]; conc 14 mM, individual replicates",37.46% and 22.54% and 31.12%
same,"% inhibition collagenase, ave",[2]; conc 28 mM,51.14%
same,"% inhibition collagenase, N1-N3","[2]; conc 28 mM, individual replicates",50.5% and 50.77% and 52.14%
same,"% inhibition collagenase, ave",[2]; conc 56 mM,72.77%
same,"% inhibition collagenase, N1-N3","[2]; conc 56 mM, individual replicates",71.84% and 74.23% and 72.24%
same,IC50,[2]; [6],307 µM and 286 µM and 334 µM
same,IC50,[2]; [7],309 ± 13.7 µM
"C[C@H]1[C@H](C)CC[C@]2(C(=O)O)CC[C@]3(C)C(=CC[C@@H]4[C@@]5(C)CC[C@H](O)C(C)(C)[C@@H]5CC[C@]43C)[C@H]12 [Ursolic acid, ursolic acid, reference compound]","% inhibition elastase, replicates 1-3","[3]; 10 uM, individual replicates",25.34% and 30.65%
same,inhibition at 10 µM,"[3]; 10 uM, individual replicates, read-out: % inhibition elastase, replicates 1-3",26.2%
same,inhibition at 10 µM,"[3]; 10 uM, read-out: % inhibition elastase, ave",27.4%
same,"% inhibition elastase, replicates 1-3","[3]; 30 uM, individual replicates",46.86% and 46.62%
same,inhibition at 30 µM,"[3]; 30 uM, individual replicates, read-out: % inhibition elastase, replicates 1-3",48.1%
same,inhibition at 30 µM,"[3]; 30 uM, read-out: % inhibition elastase, ave",47.2%
same,"% inhibition elastase, replicates 1-3","[3]; 35 uM, individual replicates",50.36% and 49.93%
same,inhibition at 35 µM,"[3]; 35 uM, individual replicates, read-out: % inhibition elastase, replicates 1-3",51.1%
same,inhibition at 35 µM,"[3]; 35 uM, read-out: % inhibition elastase, ave",50.5%
same,"% inhibition elastase, replicates 1-3","[3]; 40 uM, individual replicates",53.85% and 54.07%
same,inhibition at 40 µM,"[3]; 40 uM, individual replicates, read-out: % inhibition elastase, replicates 1-3",53.2%
same,inhibition at 40 µM,"[3]; 40 uM, read-out: % inhibition elastase, ave",53.7%
same,"% inhibition elastase, ave",[3]; 50 uM,72.36%
same,"% inhibition elastase, replicates 1-3","[3]; 50 uM, individual replicates",74.42% and 69.89%
same,inhibition at 50 µM,"[3]; 50 uM, individual replicates, read-out: % inhibition elastase, replicates 1-3",72.8%
same,inhibition at 50 µM,"[3]; 50 uM, read-out: % inhibition elastase, ave",72.4%
same,"% inhibition elastase, ave",[3]; 100 uM,87.51%
same,"% inhibition elastase, replicates 1-3","[3]; 100 uM, individual replicates",89.73% and 85.61%
same,inhibition at 100 µM,"[3]; 100 uM, individual replicates, read-out: % inhibition elastase, replicates 1-3",87.2%
same,inhibition at 100 µM,"[3]; 100 uM, read-out: % inhibition elastase, ave",87.5%
same,inhibition at 100 µM,"[3]; at 100 µmol L^−1, read-out: elastase inhibition",80%
same,IC50,[3]; [10],33.2 µM and 35.1 µM and 34.5 µM
same,IC50,[3]; [11],34.3 ± 0.6 µM
"OC[C@H]1O[C@@H](Oc2ccc(O)cc2)[C@H](O)[C@@H](O)[C@@H]1O [β-Arbutin, β-arbutin, reference compound]",inhibition at 12.5 µg/mL,"[1]; read-out: % inhibition tyrosinase, N1-N3, conc 12.5 ug/ml, individual replicates",31.2%
same,inhibition at 15 µg/mL,"[1]; read-out: % inhibition tyrosinase, N1-N3, conc 15 ug/ml, individual replicates",36.9%
same,inhibition at 25 µg/mL,"[1]; read-out: % inhibition tyrosinase, N1-N3, conc 25 ug/ml, individual replicates",59.7%
same,inhibition at 30 µM,"[1]; read-out: % inhibition tyrosinase, ave, 30 uM",18.4%
same,inhibition at 40 µM,"[1]; read-out: % inhibition tyrosinase, ave, 40 uM",24.9%
same,inhibition at 46 µM,"[1]; read-out: % inhibition tyrosinase, ave, 46 uM",28.8%
same,inhibition at 50 µM,"[1]; read-out: % inhibition tyrosinase, ave, 50 uM",34.4%
same,inhibition at 92 µM,"[1]; read-out: % inhibition tyrosinase, ave, 92 uM",58.8%
same,inhibition at 12.5 µg/mL,"[1]; read-out: % inhibition tyrosinase, ave, conc 12.5 ug/ml",28.8%
same,inhibition at 15 µg/mL,"[1]; read-out: % inhibition tyrosinase, ave, conc 15 ug/ml",34.8%
same,inhibition at 25 µg/mL,"[1]; read-out: % inhibition tyrosinase, ave, conc 25 ug/ml",58.8%
same,inhibition at 30 µM,"[1]; read-out: % inhibition tyrosinase, replicates 1-3, 30 uM, individual replicates",18.7%
same,inhibition at 40 µM,"[1]; read-out: % inhibition tyrosinase, replicates 1-3, 40 uM, individual replicates",25.7%
same,inhibition at 46 µM,"[1]; read-out: % inhibition tyrosinase, replicates 1-3, 46 uM, individual replicates",31.2%
same,inhibition at 50 µM,"[1]; read-out: % inhibition tyrosinase, replicates 1-3, 50 uM, individual replicates",30.5%
same,inhibition at 92 µM,"[1]; read-out: % inhibition tyrosinase, replicates 1-3, 92 uM, individual replicates",59.7%
